{"source": "patent US12194021B2", "about": "“Modified herbal compositions for neuromodulation” (University of Southern California, priority 2021, dated 2025)", "key": {"[1]": {"experiment": "Two-week Functional Observational Battery (FOB)", "format": "in vivo, rats", "experimental": "The results shown in Table 2 indicate that D-P is the safe compound. During the two weeks, we checked the animals' fur, response to handling, etc. […] We also made sure to observe the animals continuously for 4 hours after each treatment. We mainly focused on any negative changes in the animal's mental behavior, autonomous activity, hair, glandular secretion, feces, death, etc. We found no notable changes with these evaluations."}, "[2]": {"experiment": "Water solubility", "format": "physicochemical", "conditions": "compared with natural DHM"}, "[3]": {"conditions": "male rats, 1 mg/kg oral daily, day0"}, "[4]": {"conditions": "male rats, 1 mg/kg oral daily, day3"}, "[5]": {"conditions": "male rats, 1 mg/kg oral daily, day5"}, "[6]": {"conditions": "male rats, 1 mg/kg oral daily, day8"}, "[7]": {"conditions": "male rats, 1 mg/kg oral daily, day10"}, "[8]": {"conditions": "male rats, 1 mg/kg oral daily, day12"}, "[9]": {"conditions": "male rats, 1 mg/kg oral daily, day14"}, "[10]": {"conditions": "male rats, 10 mg/kg oral daily, day0"}, "[11]": {"conditions": "male rats, 10 mg/kg oral daily, day3"}, "[12]": {"conditions": "male rats, 10 mg/kg oral daily, day5"}, "[13]": {"conditions": "male rats, 10 mg/kg oral daily, day8"}, "[14]": {"conditions": "male rats, 10 mg/kg oral daily, day10"}, "[15]": {"conditions": "male rats, 10 mg/kg oral daily, day12"}, "[16]": {"conditions": "male rats, 10 mg/kg oral daily, day14"}, "[17]": {"conditions": "male rats, 100 mg/kg oral daily, day0"}, "[18]": {"conditions": "male rats, 100 mg/kg oral daily, day3"}, "[19]": {"conditions": "male rats, 100 mg/kg oral daily, day5"}, "[20]": {"conditions": "male rats, 100 mg/kg oral daily, day8"}, "[21]": {"conditions": "male rats, 100 mg/kg oral daily, day10"}, "[22]": {"conditions": "male rats, 100 mg/kg oral daily, day12"}, "[23]": {"conditions": "male rats, 100 mg/kg oral daily, day14"}, "[24]": {"conditions": "rats, oral daily 1, 10 and 100 mg/kg, two weeks"}}, "data": [{"substance": "piperidin-1-ium (2R,3R)-2-(3,4-dihydroxy-5-oxidophenyl)-3,5-dihydroxy-4-oxochroman-7-olate [D-P]", "values": [{"measurement": "Temperature (T)", "setting": "[1]; female rats, 100 mg/kg oral daily, day14", "result": "36.2 ± 0.7", "unit": "°C"}, {"measurement": "Breath (B)", "setting": "[1]; [3]", "result": "84 ± 0.3", "unit": "per minute"}, {"measurement": "Pulse (P)", "setting": "[1]; [3]", "result": "367 ± 2.1", "unit": "beats/minute"}, {"measurement": "Temperature (T)", "setting": "[1]; [3]", "result": "36.1 ± 0.3", "unit": "°C"}, {"measurement": "Breath (B)", "setting": "[1]; [4]", "result": "85 ± 0.4", "unit": "per minute"}, {"measurement": "Pulse (P)", "setting": "[1]; [4]", "result": "366 ± 2.5", "unit": "beats/minute"}, {"measurement": "Temperature (T)", "setting": "[1]; [4]", "result": "36.4 ± 0.7", "unit": "°C"}, {"measurement": "Breath (B)", "setting": "[1]; [5]", "result": "85 ± 0.5", "unit": "per minute"}, {"measurement": "Pulse (P)", "setting": "[1]; [5]", "result": "366 ± 1.5", "unit": "beats/minute"}, {"measurement": "Temperature (T)", "setting": "[1]; [5]", "result": "36.5 ± 0.5", "unit": "°C"}, {"measurement": "Breath (B)", "setting": "[1]; [6]", "result": "85 ± 0.5", "unit": "per minute"}, {"measurement": "Pulse (P)", "setting": "[1]; [6]", "result": "366 ± 1.3", "unit": "beats/minute"}, {"measurement": "Temperature (T)", "setting": "[1]; [6]", "result": "36.4 ± 1.0", "unit": "°C"}, {"measurement": "Breath (B)", "setting": "[1]; [7]", "result": "85 ± 0.3", "unit": "per minute"}, {"measurement": "Pulse (P)", "setting": "[1]; [7]", "result": "366 ± 0.2", "unit": "beats/minute"}, {"measurement": "Temperature (T)", "setting": "[1]; [7]", "result": "36.5 ± 0.3", "unit": "°C"}, {"measurement": "Breath (B)", "setting": "[1]; [8]", "result": "85 ± 0.5", "unit": "per minute"}, {"measurement": "Pulse (P)", "setting": "[1]; [8]", "result": "366 ± 1.5", "unit": "beats/minute"}, {"measurement": "Temperature (T)", "setting": "[1]; [8]", "result": "36.5 ± 0.5", "unit": "°C"}, {"measurement": "Breath (B)", "setting": "[1]; [9]", "result": "85 ± 0.5", "unit": "per minute"}, {"measurement": "Pulse (P)", "setting": "[1]; [9]", "result": "366 ± 1.5", "unit": "beats/minute"}, {"measurement": "Temperature (T)", "setting": "[1]; [9]", "result": "36.5 ± 0.5", "unit": "°C"}, {"measurement": "Breath (B)", "setting": "[1]; [10]", "result": "86 ± 0.2", "unit": "per minute"}, {"measurement": "Pulse (P)", "setting": "[1]; [10]", "result": "366 ± 5.2", "unit": "beats/minute"}, {"measurement": "Temperature (T)", "setting": "[1]; [10]", "result": "36.5 ± 0.5", "unit": "°C"}, {"measurement": "Breath (B)", "setting": "[1]; [11]", "result": "86 ± 0.6", "unit": "per minute"}, {"measurement": "Pulse (P)", "setting": "[1]; [11]", "result": "370 ± 0.5", "unit": "beats/minute"}, {"measurement": "Temperature (T)", "setting": "[1]; [11]", "result": "36.4 ± 0.6", "unit": "°C"}, {"measurement": "Breath (B)", "setting": "[1]; [12]", "result": "86 ± 0.5", "unit": "per minute"}, {"measurement": "Pulse (P)", "setting": "[1]; [12]", "result": "374 ± 0.5", "unit": "beats/minute"}, {"measurement": "Temperature (T)", "setting": "[1]; [12]", "result": "36.5 ± 0.5", "unit": "°C"}, {"measurement": "Breath (B)", "setting": "[1]; [13]", "result": "86 ± 0.5", "unit": "per minute"}, {"measurement": "Pulse (P)", "setting": "[1]; [13]", "result": "370 ± 1.9", "unit": "beats/minute"}, {"measurement": "Temperature (T)", "setting": "[1]; [13]", "result": "36.4 ± 1.1", "unit": "°C"}, {"measurement": "Breath (B)", "setting": "[1]; [14]", "result": "86 ± 0.2", "unit": "per minute"}, {"measurement": "Pulse (P)", "setting": "[1]; [14]", "result": "372 ± 6.2", "unit": "beats/minute"}, {"measurement": "Temperature (T)", "setting": "[1]; [14]", "result": "36.5 ± 0.5", "unit": "°C"}, {"measurement": "Breath (B)", "setting": "[1]; [15]", "result": "86 ± 0.5", "unit": "per minute"}, {"measurement": "Pulse (P)", "setting": "[1]; [15]", "result": "373 ± 4.5", "unit": "beats/minute"}, {"measurement": "Temperature (T)", "setting": "[1]; [15]", "result": "36.5 ± 0.5", "unit": "°C"}, {"measurement": "Breath (B)", "setting": "[1]; [16]", "result": "86 ± 0.5", "unit": "per minute"}, {"measurement": "Pulse (P)", "setting": "[1]; [16]", "result": "371 ± 7.5", "unit": "beats/minute"}, {"measurement": "Temperature (T)", "setting": "[1]; [16]", "result": "36.5 ± 0.5", "unit": "°C"}, {"measurement": "Breath (B)", "setting": "[1]; [17]", "result": "86 ± 0.5", "unit": "per minute"}, {"measurement": "Pulse (P)", "setting": "[1]; [17]", "result": "371 ± 0.6", "unit": "beats/minute"}, {"measurement": "Temperature (T)", "setting": "[1]; [17]", "result": "36.4 ± 1.0", "unit": "°C"}, {"measurement": "Breath (B)", "setting": "[1]; [18]", "result": "86 ± 0.3", "unit": "per minute"}, {"measurement": "Pulse (P)", "setting": "[1]; [18]", "result": "365 ± 8.1", "unit": "beats/minute"}, {"measurement": "Temperature (T)", "setting": "[1]; [18]", "result": "36.3 ± 0.7", "unit": "°C"}, {"measurement": "Breath (B)", "setting": "[1]; [19]", "result": "86 ± 0.3", "unit": "per minute"}, {"measurement": "Pulse (P)", "setting": "[1]; [19]", "result": "367 ± 0.9", "unit": "beats/minute"}, {"measurement": "Temperature (T)", "setting": "[1]; [19]", "result": "36.4 ± 0.8", "unit": "°C"}, {"measurement": "Breath (B)", "setting": "[1]; [20]", "result": "86 ± 0.5", "unit": "per minute"}, {"measurement": "Pulse (P)", "setting": "[1]; [20]", "result": "365 ± 9.5", "unit": "beats/minute"}, {"measurement": "Temperature (T)", "setting": "[1]; [20]", "result": "36.3 ± 1.5", "unit": "°C"}, {"measurement": "Breath (B)", "setting": "[1]; [21]", "result": "86 ± 0.5", "unit": "per minute"}, {"measurement": "Pulse (P)", "setting": "[1]; [21]", "result": "368 ± 8.7", "unit": "beats/minute"}, {"measurement": "Temperature (T)", "setting": "[1]; [21]", "result": "36.4 ± 1.0", "unit": "°C"}, {"measurement": "Breath (B)", "setting": "[1]; [22]", "result": "86 ± 0.3", "unit": "per minute"}, {"measurement": "Pulse (P)", "setting": "[1]; [22]", "result": "371 ± 5.9", "unit": "beats/minute"}, {"measurement": "Temperature (T)", "setting": "[1]; [22]", "result": "36.4 ± 0.8", "unit": "°C"}, {"measurement": "Breath (B)", "setting": "[1]; [23]", "result": "86 ± 0.3", "unit": "per minute"}, {"measurement": "Pulse (P)", "setting": "[1]; [23]", "result": "369 ± 5.9", "unit": "beats/minute"}, {"measurement": "Temperature (T)", "setting": "[1]; [23]", "result": "36.4 ± 0.8", "unit": "°C"}, {"measurement": "FOB overall observation", "setting": "[1]; [24]", "result": "did not find any notable negative changes"}, {"measurement": "deaths or injuries", "setting": "[1]; [24]", "result": "No deaths or injuries"}, {"measurement": "water solubility", "setting": "[2]", "result": "can be dissolved into water"}]}]}
